In paper PMC3431822, “Enzymatic Properties and Mutational Studies of Chalcone Synthase from Physcomitrella patens” (International Journal of Molecular Sciences, 2012):

Molecular target: T1, PpCHS (Physcomitrium patens, UniProt Q2VAZ3)
T1 construct: gene PHYPA_029015; homodimer ~120 kDa
Experiment: HPLC of pyrone product, UV […] nm
Format: biochemical
Conditions: hexanoyl-CoA co-substrate, 20 mM phosphate pH 7, 30 °C, 2 h; extender substrate; Trx-fusion enzyme

T1 sequence (Q2VAZ3 entry or part of it): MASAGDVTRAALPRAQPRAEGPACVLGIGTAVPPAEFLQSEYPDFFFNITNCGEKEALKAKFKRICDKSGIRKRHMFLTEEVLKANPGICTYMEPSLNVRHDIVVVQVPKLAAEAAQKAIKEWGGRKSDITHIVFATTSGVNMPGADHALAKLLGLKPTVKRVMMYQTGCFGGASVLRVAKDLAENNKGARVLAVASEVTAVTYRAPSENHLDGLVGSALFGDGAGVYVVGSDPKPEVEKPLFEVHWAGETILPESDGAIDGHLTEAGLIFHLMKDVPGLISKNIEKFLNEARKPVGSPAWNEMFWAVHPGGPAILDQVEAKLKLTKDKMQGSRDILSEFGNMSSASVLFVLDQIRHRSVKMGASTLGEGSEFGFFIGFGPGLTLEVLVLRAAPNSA

Compound: CC(C)(COP(=O)(O)OP(=O)(O)OC[C@H]1O[C@@H](n2cnc3c(N)ncnc32)[C@H](O)[C@@H]1OP(=O)(O)O)[C@@H](O)C(=O)NCCC(=O)NCCSC(=O)CC(=O)O [malonyl-CoA]
- HPLC of pyrone product, UV 280 nm: HPLC Analysis of the reaction of hexanoyl-CoA and malonyl-CoA with PpCHS
